Assay results reported in the NIST ThermoML archive (doi:10.1016/j.tca.2006.05.010).
± gives the expanded uncertainty stated by the source.

Assays:
[1] = molar heat capacity at constant pressure; xn = mol fraction of the nth substance listed; details: 308.15 K, 101 kPa, Liquid, Small sample (50 mg) DSC
[2] = excess molar enthalpy (molar enthalpy of mixing); xn = mol fraction of the nth substance listed; details: 308.15 K, 101 kPa, Liquid, Flow calorimetry
[3] = 101.33 kPa, Liquid, Vibrating tube method
[4] = molar heat capacity at constant pressure; details: 101.33 kPa, Liquid, Small sample (50 mg) DSC
[5] = refractive index (Na D-line) (dimensionless); details: 101.33 kPa, Liquid, Standard Abbe refractometry

C1CCOC1 [tetrahydrofuran] + C[S+](C)[O-]
Details	excess molar enthalpy [kcal/mol]	molar heat capacity at constant pressure [J/K/mol]
[1], x2 = 0.0807	–	132.9 ± 2.1
[1], x2 = 0.1171	–	133.6 ± 2.1
[1], x2 = 0.2353	–	135.9 ± 2.1
[1], x2 = 0.3233	–	137.7 ± 2.1
[1], x2 = 0.4932	–	141.4 ± 2.2
[1], x2 = 0.5284	–	142.3 ± 2.2
[1], x2 = 0.5833	–	143.6 ± 2.2
[1], x2 = 0.6359	–	144.9 ± 2.2
[1], x2 = 0.7298	–	147.2 ± 2.3
[1], x2 = 0.8269	–	149.8 ± 2.3
[1], x2 = 0.893	–	151.6 ± 2.3
[1], x2 = 0.9507	–	153.2 ± 2.4
[2], x2 = 0.0457	0.0509 ± 0.000717	–
[2], x2 = 0.0875	0.0889 ± 0.0012	–
[2], x2 = 0.1257	0.117 ± 0.00143	–
[2], x2 = 0.1608	0.138 ± 0.00191	–
[2], x2 = 0.2233	0.167 ± 0.00215	–
[2], x2 = 0.2771	0.183 ± 0.00239	–
[2], x2 = 0.3651	0.204 ± 0.00263	–
[2], x2 = 0.4339	0.208 ± 0.00263	–
[2], x2 = 0.5349	0.209 ± 0.00263	–
[2], x2 = 0.6332	0.201 ± 0.00263	–
[2], x2 = 0.697	0.185 ± 0.00239	–
[2], x2 = 0.7753	0.163 ± 0.00215	–
[2], x2 = 0.8215	0.141 ± 0.00191	–
[2], x2 = 0.8735	0.113 ± 0.00143	–
[2], x2 = 0.902	0.0956 ± 0.0012	–
[2], x2 = 0.9325	0.0696 ± 0.000956	–
[2], x2 = 0.965	0.039 ± 0.000717	–

C1CCOCC1 [tetrahydropyran]
Details	mass density [kg/m3]	molar heat capacity at constant pressure [J/K/mol]	refractive index
[3], 298.15 K	879.31 ± 0.24	–	–
[3], 308.15 K	868.85 ± 0.24	–	–
[4], 288.15 K	–	143.9 ± 2.2	–
[4], 293.15 K	–	146.3 ± 2.3	–
[4], 298.15 K	–	147.9 ± 2.3	–
[4], 303.15 K	–	149.7 ± 2.3	–
[4], 308.15 K	–	151.7 ± 2.4	–
[4], 313.15 K	–	154.3 ± 2.4	–
[4], 318.15 K	–	156.5 ± 2.4	–
[4], 323.15 K	–	159.1 ± 2.5	–
[4], 328.15 K	–	161.6 ± 2.5	–
[4], 333.15 K	–	164.2 ± 2.5	–
[5], 298.15 K	–	–	1.4188 ± 0.0004
[5], 308.15 K	–	–	1.4142 ± 0.0004

C1CCOCC1 [tetrahydropyran] + C[S+](C)[O-]
Details	excess molar enthalpy [kcal/mol]	molar heat capacity at constant pressure [J/K/mol]
[1], x2 = 0.0834	–	152.1 ± 2.4
[1], x2 = 0.1416	–	152.4 ± 2.4
[1], x2 = 0.2619	–	152.8 ± 2.4
[1], x2 = 0.376	–	153.1 ± 2.4
[1], x2 = 0.4572	–	153.5 ± 2.4
[1], x2 = 0.5817	–	153.7 ± 2.4
[1], x2 = 0.6249	–	153.8 ± 2.4
[1], x2 = 0.659	–	153.8 ± 2.4
[1], x2 = 0.7619	–	153.9 ± 2.4
[1], x2 = 0.8405	–	154 ± 2.4
[1], x2 = 0.9268	–	154.2 ± 2.4
[1], x2 = 0.952	–	154.3 ± 2.4
[2], x2 = 0.0543	0.0899 ± 0.0012	–
[2], x2 = 0.1148	0.16 ± 0.00215	–
[2], x2 = 0.1469	0.187 ± 0.00239	–
[2], x2 = 0.1867	0.214 ± 0.00263	–
[2], x2 = 0.2562	0.243 ± 0.00311	–
[2], x2 = 0.3146	0.261 ± 0.00335	–
[2], x2 = 0.4079	0.273 ± 0.00335	–
[2], x2 = 0.4786	0.278 ± 0.00359	–
[2], x2 = 0.5708	0.27 ± 0.00335	–
[2], x2 = 0.6739	0.247 ± 0.00311	–
[2], x2 = 0.7337	0.226 ± 0.00287	–
[2], x2 = 0.8051	0.19 ± 0.00239	–
[2], x2 = 0.8464	0.164 ± 0.00215	–
[2], x2 = 0.8921	0.121 ± 0.00167	–
[2], x2 = 0.9168	0.0985 ± 0.00143	–
[2], x2 = 0.9429	0.0705 ± 0.000956	–
[2], x2 = 0.9706	0.0375 ± 0.000478	–
